For the assay, the system named is BDF1 mice, s.c. Lewis lung carcinoma, T/C %. Kind of assay: NCI In Vivo Anticancer Drug Screen. Data for tumor model Lewis Lung Carcinoma (subcutaneous) in B6D2F1 (BDF1) mice. The gist of the method:
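First, mice carry a transplantable tumor. Next, groups receive either compound or vehicle. Finally, survival or tumor dimensions in the dosed animals are divided by the corresponding control figure.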

[1] abbreviates: endpoint: median survival time, dose: 5.0 mg/kg/injection, schedule: Q01DX009 (ip), vehicle: Klucel (hydroxypropylcellulose) (HPC), higher = longer survival.

“And” between values parts separate entries of the source, which are not always exact repeats. Identical values can stand only once. Records with an inconclusive call do not appear.

Turning to `COC(=O)[C@@]12OC[C@]34[C@H]([C@@H](O)[C@@H]1O)[C@@]1(C)CC(=O)C(O)=C(C)[C@@H]1C[C@H]3OC(=O)[C@H](OC(=O)/C=C(\C)C(C)C)[C@@H]24`, the T/C (endpoint: median survival time, dose: 0.12 mg/kg/injection, schedule: Q01DX009 (ip), vehicle: other, higher = longer survival) was 99 % of control; the T/C (endpoint: median survival time, dose: 0.25 mg/kg/injection, schedule: Q01DX009 (ip), vehicle: other, higher = longer survival) was 91 % of control; the T/C (endpoint: median survival time, dose: 0.5 mg/kg/injection, schedule: Q01DX009 (ip), vehicle: other, higher = longer survival) was 92 % of control; the T/C (endpoint: median survival time, dose: 1.0 mg/kg/injection, schedule: Q01DX009 (ip), vehicle: other, higher = longer survival) is 91 % of control; the T/C (endpoint: median survival time, dose: 2.0 mg/kg/injection, schedule: Q01DX009 (ip), vehicle: other, higher = longer survival) is 87 % of control.
`Oc1cc2c3c(c1)c1cc4c(cc1c[n+]3CC2)OCO4`: the T/C reads like this: (endpoint: median survival time, dose: 3.13 mg/kg/injection, schedule: Q01DX009 (ip), vehicle: water, higher = longer survival) 109 % of control; (endpoint: median survival time, dose: 6.25 mg/kg/injection, schedule: Q01DX009 (ip), vehicle: water, higher = longer survival) 96 % of control; (endpoint: median survival time, dose: 12.5 mg/kg/injection, schedule: Q01DX009 (ip), vehicle: water, higher = longer survival) 122 % of control; (endpoint: median survival time, dose: 25.0 mg/kg/injection, schedule: Q01DX009 (ip), vehicle: water, higher = longer survival) 96 % of control.
As to `CS(C)=O`, the T/C was 68 % of control (endpoint: mean tumor weight, dose: 250.0 mg/kg/injection, schedule: Q01DX011 (ip), vehicle: carboxymethylcellulose (CMC), higher = larger tumour); 117 % of control (endpoint: mean tumor weight, dose: 500.0 mg/kg/injection, schedule: Q01DX011 (ip), vehicle: carboxymethylcellulose (CMC), higher = larger tumour); 86 % of control (endpoint: mean tumor weight, dose: 1000.0 mg/kg/injection, schedule: Q01DX011 (ip), vehicle: carboxymethylcellulose (CMC), higher = larger tumour); 57 % of control (endpoint: mean tumor weight, dose: 2000.0 mg/kg/injection, schedule: Q01DX011 (ip), vehicle: carboxymethylcellulose (CMC), higher = larger tumour); 101 % of control (endpoint: median survival time, dose: 3.0 grams/kg/injection, schedule: Q01DX009 (ip), vehicle: saline, higher = longer survival); 93 % of control (endpoint: median survival time, dose: 6.0 grams/kg/injection, schedule: Q01DX009 (ip), vehicle: saline, higher = longer survival).
With `COc1cc(NS(C)(=O)=O)ccc1Nc1c2ccccc2nc2c(C)cccc12`, the T/C is 103 % of control (endpoint: median survival time, dose: 1.25 mg/kg/injection, schedule: Q01DX009 (ip), vehicle: Klucel (hydroxypropylcellulose) (HPC), higher = longer survival) and 121 % of control under setting [1].
`Nc1nc(=S)c2ncn(C3CC(O)C(CO)O3)c2[nH]1` (centres undefined): the T/C is 122 % of control (endpoint: median survival time, dose: 4.0 mg/kg/injection, schedule: Q01DX009 (ip), vehicle: saline, higher = longer survival); 118 % of control (endpoint: median survival time, dose: 8.0 mg/kg/injection, schedule: Q01DX009 (ip), vehicle: saline, higher = longer survival); 108 % of control (endpoint: median survival time, dose: 16.0 mg/kg/injection, schedule: Q01DX009 (ip), vehicle: saline, higher = longer survival); 113 % of control (endpoint: median survival time, dose: 64.0 mg/kg/injection, schedule: Q01DX009 (ip), vehicle: saline, higher = longer survival).
As for `OCc1ccccc1OC1OC(CO)C(O)C(O)C1O` (centres undefined), the T/C by setting is: (endpoint: mean tumor weight, dose: 100.0 mg/kg/injection, schedule: Q01DX011 (ip), vehicle: carboxymethylcellulose (CMC), higher = larger tumour) 106 % of control; (endpoint: mean tumor weight, dose: 200.0 mg/kg/injection, schedule: Q01DX011 (ip), vehicle: carboxymethylcellulose (CMC), higher = larger tumour) 86 % of control; (endpoint: mean tumor weight, dose: 400.0 mg/kg/injection, schedule: Q01DX011 (ip), vehicle: carboxymethylcellulose (CMC), higher = larger tumour) 100 % of control.
`FCCNC1CCCCC1`: the T/C is 99 % of control (endpoint: mean tumor weight, dose: 1.5 mg/kg/injection, schedule: Q01DX011 (ip), vehicle: carboxymethylcellulose (CMC), higher = larger tumour); 89 % of control (endpoint: mean tumor weight, dose: 5.0 mg/kg/injection, schedule: Q01DX011 (ip), vehicle: carboxymethylcellulose (CMC), higher = larger tumour); 68 % of control (endpoint: mean tumor weight, dose: 7.5 mg/kg/injection, schedule: Q01DX011 (ip), vehicle: carboxymethylcellulose (CMC), higher = larger tumour).
For the molecule `N/C(CCSc1ccccc1N=Cc1ccccc1O)=N/O`, the T/C (endpoint: median survival time, dose: 3.13 mg/kg/injection, schedule: Q01DX009 (ip), vehicle: olive oil, sesame oil, peanut oil, higher = longer survival) is 87 % of control.
With `Nc1ncnc2c(C3OC(CO)C(O)C3O)[nH]nc12` (centres undefined), for the setting “endpoint: mean tumor weight, dose: 10.5 mg/kg/injection, schedule: Q01DX011 (ip), vehicle: carboxymethylcellulose (CMC), higher = larger tumour”, the T/C was 66 % of control.
With `O=c1[nH]cc(F)c(=O)[nH]1`, the T/C (endpoint: mean tumor weight, dose: 5.0 mg/kg/injection, schedule: Q01DX011 (ip), vehicle: saline, higher = larger tumour) was 54 % of control; the T/C (endpoint: mean tumor weight, dose: 10.0 mg/kg/injection, schedule: Q01DX011 (ip), vehicle: saline, higher = larger tumour) is 68 % of control; the T/C (endpoint: mean tumor weight, dose: 13.5 mg/kg/injection, schedule: Q01DX011 (ip), vehicle: water, higher = larger tumour) is 51 % of control; the T/C (endpoint: mean tumor weight, dose: 20.0 mg/kg/injection, schedule: Q01DX011 (ip), vehicle: saline, higher = larger tumour) was 35 % of control; the T/C (endpoint: mean tumor weight, dose: 27.0 mg/kg/injection, schedule: Q01DX011 (ip), vehicle: water, higher = larger tumour) is 6 % of control; the T/C under setting [1] is 86 % of control. The T/C (endpoint: median survival time, dose: 5.0 mg/kg/injection, schedule: Q01DX009 (ip), vehicle: saline with Tween-80, higher = longer survival) is 97 % of control; the T/C (endpoint: median survival time, dose: 5.0 mg/kg/injection, schedule: Q01DX009 (ip), vehicle: saline, higher = longer survival) is 108 % of control; the T/C (endpoint: median survival time, dose: 10.0 mg/kg/injection, schedule: Q01DX009 (ip), vehicle: Klucel (hydroxypropylcellulose) (HPC), higher = longer survival) was 97 % of control and 98 % of control; the T/C (endpoint: median survival time, dose: 10.0 mg/kg/injection, schedule: Q01DX009 (ip), vehicle: saline with Tween-80, higher = longer survival) was 86 % of control; the T/C (endpoint: median survival time, dose: 10.0 mg/kg/injection, schedule: Q01DX009 (ip), vehicle: saline, higher = longer survival) was 118 % of control; the T/C (endpoint: median survival time, dose: 16.2 mg/kg/injection, schedule: Q04DX002 (ip), vehicle: saline, higher = longer survival) is 97 % of control and 102 % of control. Moreover, the T/C is 111 % of control (endpoint: median survival time, dose: 20.0 mg/kg/injection, schedule: Q01DX009 (ip), vehicle: Klucel (hydroxypropylcellulose) (HPC), higher = longer survival); 97 % of control and 112 % of control (endpoint: median survival time, dose: 20.0 mg/kg/injection, schedule: Q01DX009 (ip), vehicle: saline with Tween-80, higher = longer survival); 124 % of control (endpoint: median survival time, dose: 21.6 mg/kg/injection, schedule: Q04DX004 (ip), vehicle: saline, higher = longer survival); 157 % of control (endpoint: median survival time, dose: 23.3 mg/kg/injection, schedule: Q04DX003 (iv), vehicle: alkali diluted with saline, higher = longer survival); 100 % of control and 102 % of control (endpoint: median survival time, dose: 27.0 mg/kg/injection, schedule: Q04DX002 (ip), vehicle: saline, higher = longer survival); 115 % of control (endpoint: median survival time, dose: 36.0 mg/kg/injection, schedule: Q04DX004 (ip), vehicle: saline, higher = longer survival). Moreover, the T/C was 86 % of control (endpoint: median survival time, dose: 40.0 mg/kg/injection, schedule: Q01DX009 (ip), vehicle: Klucel (hydroxypropylcellulose) (HPC), higher = longer survival); 201 % of control (endpoint: median survival time, dose: 40.4 mg/kg/injection, schedule: Q04DX003 (iv), vehicle: alkali diluted with saline, higher = longer survival); 96 % of control and 97 % of control (endpoint: median survival time, dose: 45.0 mg/kg/injection, schedule: Q04DX002 (ip), vehicle: saline, higher = longer survival); 98 % of control (endpoint: median survival time, dose: 70.0 mg/kg/injection, schedule: Q04DX003 (iv), vehicle: alkali diluted with saline, higher = longer survival); 105 % of control (endpoint: median survival time, dose: 75.0 mg/kg/injection, schedule: Q04DX002 (ip), vehicle: saline, higher = longer survival); 64 % of control (endpoint: median survival time, dose: 100.0 mg/kg/injection, schedule: Q04DX004 (ip), vehicle: saline, higher = longer survival). In addition, the T/C (endpoint: median survival time, dose: 121.0 mg/kg/injection, schedule: Q04DX003 (iv), vehicle: alkali diluted with saline, higher = longer survival) is 95 % of control; the T/C (endpoint: median survival time, dose: 125.0 mg/kg/injection, schedule: Q04DX002 (ip), vehicle: saline, higher = longer survival) is 109 % of control; the T/C (endpoint: median tumor weight (est.), dose: 5.0 mg/kg/injection, schedule: Q01DX009 (ip), vehicle: Klucel (hydroxypropylcellulose) (HPC), higher = larger tumour) is 102 % of control; the T/C (endpoint: median tumor weight (est.), dose: 5.0 mg/kg/injection, schedule: Q01DX009 (ip), vehicle: saline with Tween-80, higher = larger tumour) was 97 % of control; the T/C (endpoint: median tumor weight (est.), dose: 10.0 mg/kg/injection, schedule: Q01DX009 (ip), vehicle: Klucel (hydroxypropylcellulose) (HPC), higher = larger tumour) was 91 % of control; the T/C (endpoint: median tumor weight (est.), dose: 10.0 mg/kg/injection, schedule: Q01DX009 (ip), vehicle: saline with Tween-80, higher = larger tumour) was 93 % of control. Moreover, the T/C (endpoint: median tumor weight (est.), dose: 20.0 mg/kg/injection, schedule: Q01DX009 (ip), vehicle: Klucel (hydroxypropylcellulose) (HPC), higher = larger tumour) is 73 % of control and the T/C (endpoint: median tumor weight (est.), dose: 20.0 mg/kg/injection, schedule: Q01DX009 (ip), vehicle: saline with Tween-80, higher = larger tumour) is 53 % of control.
On to `C=C(C)C(=O)O[C@H]1CC2=C[C@@H](C[C@@]3(C)O[C@@H]3[C@H]3OC(=O)C(=C)[C@@H]31)OC2=O`, for which the T/C is 171 % of control (endpoint: mean tumor weight, dose: 2.0 mg/kg/injection, schedule: Q01DX011 (ip), vehicle: saline, higher = larger tumour); 118 % of control (endpoint: mean tumor weight, dose: 4.0 mg/kg/injection, schedule: Q01DX011 (ip), vehicle: saline, higher = larger tumour); 107 % of control (endpoint: mean tumor weight, dose: 8.0 mg/kg/injection, schedule: Q01DX011 (ip), vehicle: saline, higher = larger tumour).

These data come from PubChem BioAssay AID270 (DTP/NCI, 2004).
